Experiments:
Assay in all cases: relative viability (nuclei count vs DMSO), 5 days (fraction); higher = more cells survive
SK-LU-1 = tested on: SK-LU-1
Method in brief: (§1)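 Lung cancer cell lines, seeded in 1536-well plates, were treated the following day by pin tool with a single drug or with five library-drug doses (not always all listed) in √10 steps on top of a fixed anchor-drug dose. Cells were fixed and nuclei stained in one step after 5 days, and nuclei were counted. Relative viability is the nuclei count for treated wells divided by that for vehicle wells, reported as medians of duplicate plates.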

NCI-H1975 = tested on: NCI-H1975
Method in brief: as §1

SW 1573 = tested on: SW 1573
Method in brief: as §1

HCC-827 = tested on: HCC-827
Method in brief: as §1

ChaGo-K-1 = tested on: ChaGo-K-1
Method in brief: as §1

EPLC-272H = tested on: EPLC-272H
Method in brief: as §1

NCI-H1666 = tested on: NCI-H1666
Method in brief: as §1

LK-2 = tested on: LK-2
Method in brief: as §1

HCC-78 = tested on: HCC-78
Method in brief: as §1

NCI-H2126 = tested on: NCI-H2126
Method in brief: as §1

NCI-H322M = tested on: NCI-H322M
Method in brief: as §1

PC-14 = tested on: PC-14
Method in brief: as §1

NCI-H2342 = tested on: NCI-H2342
Method in brief: as §1

NCI-H23 = tested on: NCI-H23
Method in brief: as §1

EKVX = tested on: EKVX
Method in brief: as §1

EMC-BAC-2 = tested on: EMC-BAC-2
Method in brief: as §1

LU99A = tested on: LU99A
Method in brief: as §1

SW 900 = tested on: SW 900
Method in brief: as §1

LCLC-103H = tested on: LCLC-103H
Method in brief: as §1

NCI-H2405 = tested on: NCI-H2405
Method in brief: as §1

RERF-LC-KJ = tested on: RERF-LC-KJ
Method in brief: as §1

CC(=O)O[C@@]12CO[C@@H]1C[C@H](O)[C@@]1(C)C(=O)[C@H](O)C3=C(C)[C@@H](OC(=O)[C@H](O)[C@@H](NC(=O)OC(C)(C)C)c4ccccc4)C[C@@](O)([C@@H](OC(=O)c4ccccc4)[C@H]21)C3(C)C [Docetaxel] + O=C(CCCCCCC(=O)Nc1ccccc1)NO [Vorinostat] (partner 1 µM)
relative viability (SK-LU-1; first compound 0.0002 µM): 0.754 | relative viability (SK-LU-1; first compound 0.000632 µM): 0.537 | relative viability (SK-LU-1; first compound 0.002 µM): 0.38 | relative viability (SK-LU-1; first compound 0.006325 µM): 0.349 | relative viability (SK-LU-1; first compound 0.02 µM): 0.226 | relative viability (NCI-H1975; first compound 0.0002 µM): 0.723 | relative viability (NCI-H1975; first compound 0.000632 µM): 0.378 | relative viability (NCI-H1975; first compound 0.002 µM): 0.283 | relative viability (NCI-H1975; first compound 0.006325 µM): 0.232 | relative viability (NCI-H1975; first compound 0.02 µM): 0.161 | relative viability (SW 1573; first compound 0.0002 µM): 0.547 | relative viability (SW 1573; first compound 0.000632 µM): 0.305 | relative viability (SW 1573; first compound 0.002 µM): 0.228 | relative viability (SW 1573; first compound 0.006325 µM): 0.174 | relative viability (SW 1573; first compound 0.02 µM): 0.126 | relative viability (HCC-827; first compound 0.0002 µM): 0.367 | relative viability (HCC-827; first compound 0.000632 µM): 0.903 | relative viability (HCC-827; first compound 0.002 µM): 0.528 | relative viability (HCC-827; first compound 0.006325 µM): 0.279 | relative viability (HCC-827; first compound 0.02 µM): 0.238 | relative viability (ChaGo-K-1; first compound 0.0002 µM): 0.733 | relative viability (ChaGo-K-1; first compound 0.000632 µM): 0.591 | relative viability (ChaGo-K-1; first compound 0.002 µM): 0.335 | relative viability (ChaGo-K-1; first compound 0.006325 µM): 0.282 | relative viability (ChaGo-K-1; first compound 0.02 µM): 0.193 | relative viability (EPLC-272H; first compound 0.0002 µM): 0.532 | relative viability (EPLC-272H; first compound 0.000632 µM): 0.162 | relative viability (EPLC-272H; first compound 0.002 µM): 0.0568 | relative viability (EPLC-272H; first compound 0.006325 µM): 0.0865 | relative viability (EPLC-272H; first compound 0.02 µM): 0.0652 | relative viability (NCI-H1666; first compound 0.0002 µM): 0.893 | relative viability (NCI-H1666; first compound 0.000632 µM): 0.992 | relative viability (NCI-H1666; first compound 0.002 µM): 0.681 | relative viability (NCI-H1666; first compound 0.006325 µM): 0.706 | relative viability (NCI-H1666; first compound 0.02 µM): 0.47 | relative viability (LK-2; first compound 0.0002 µM): 0.313 | relative viability (LK-2; first compound 0.000632 µM): 0.217 | relative viability (LK-2; first compound 0.002 µM): 0.15 | relative viability (LK-2; first compound 0.006325 µM): 0.183 | relative viability (LK-2; first compound 0.02 µM): 0.152 | relative viability (HCC-78; first compound 0.0002 µM): 0.473 | relative viability (HCC-78; first compound 0.000632 µM): 0.374 | relative viability (HCC-78; first compound 0.002 µM): 0.261 | relative viability (HCC-78; first compound 0.006325 µM): 0.31 | relative viability (HCC-78; first compound 0.02 µM): 0.313 | relative viability (NCI-H2126; first compound 0.0002 µM): 0.783 | relative viability (NCI-H2126; first compound 0.000632 µM): 0.577 | relative viability (NCI-H2126; first compound 0.002 µM): 0.312 | relative viability (NCI-H2126; first compound 0.006325 µM): 0.337 | relative viability (NCI-H322M; first compound 0.0002 µM): 0.801 | relative viability (NCI-H322M; first compound 0.000632 µM): 0.843 | relative viability (NCI-H322M; first compound 0.002 µM): 0.906 | relative viability (NCI-H322M; first compound 0.006325 µM): 0.711 | relative viability (NCI-H322M; first compound 0.02 µM): 0.481 | relative viability (PC-14; first compound 0.0002 µM): 0.725 | relative viability (PC-14; first compound 0.000632 µM): 0.245 | relative viability (PC-14; first compound 0.002 µM): 0.079 | relative viability (PC-14; first compound 0.006325 µM): 0.0579 | relative viability (PC-14; first compound 0.02 µM): 0.0282 | relative viability (NCI-H2342; first compound 0.0002 µM): 0.625 | relative viability (NCI-H2342; first compound 0.000632 µM): 0.662 | relative viability (NCI-H2342; first compound 0.002 µM): 0.569 | relative viability (NCI-H2342; first compound 0.006325 µM): 0.445 | relative viability (NCI-H2342; first compound 0.02 µM): 0.475 | relative viability (NCI-H23; first compound 0.0002 µM): 0.55 | relative viability (NCI-H23; first compound 0.000632 µM): 0.305 | relative viability (NCI-H23; first compound 0.002 µM): 0.165 | relative viability (NCI-H23; first compound 0.006325 µM): 0.155 | relative viability (NCI-H23; first compound 0.02 µM): 0.0848 | relative viability (EKVX; first compound 0.0002 µM): 0.638 | relative viability (EKVX; first compound 0.000632 µM): 0.6 | relative viability (EKVX; first compound 0.002 µM): 0.428 | relative viability (EKVX; first compound 0.006325 µM): 0.29 | relative viability (EKVX; first compound 0.02 µM): 0.229 | relative viability (EMC-BAC-2; first compound 0.0002 µM): 0.388 | relative viability (EMC-BAC-2; first compound 0.000632 µM): 0.293 | relative viability (EMC-BAC-2; first compound 0.002 µM): 0.262 | relative viability (EMC-BAC-2; first compound 0.006325 µM): 0.224 | relative viability (EMC-BAC-2; first compound 0.02 µM): 0.171 | relative viability (LU99A; first compound 0.0002 µM): 0.529 | relative viability (LU99A; first compound 0.000632 µM): 0.373 | relative viability (LU99A; first compound 0.002 µM): 0.278 | relative viability (LU99A; first compound 0.006325 µM): 0.269 | relative viability (LU99A; first compound 0.02 µM): 0.173 | relative viability (SW 900; first compound 0.0002 µM): 0.523 | relative viability (SW 900; first compound 0.000632 µM): 0.284 | relative viability (SW 900; first compound 0.002 µM): 0.277 | relative viability (SW 900; first compound 0.006325 µM): 0.203 | relative viability (SW 900; first compound 0.02 µM): 0.235 | relative viability (LCLC-103H; first compound 0.0002 µM): 0.703 | relative viability (LCLC-103H; first compound 0.000632 µM): 0.695 | relative viability (LCLC-103H; first compound 0.002 µM): 0.513 | relative viability (LCLC-103H; first compound 0.006325 µM): 0.604 | relative viability (LCLC-103H; first compound 0.02 µM): 0.47 | relative viability (NCI-H2405; first compound 0.0002 µM): 0.839 | relative viability (NCI-H2405; first compound 0.000632 µM): 0.567 | relative viability (NCI-H2405; first compound 0.002 µM): 0.546 | relative viability (NCI-H2405; first compound 0.006325 µM): 0.394 | relative viability (NCI-H2405; first compound 0.02 µM): 0.335 | relative viability (RERF-LC-KJ; first compound 0.0002 µM): 0.591 | relative viability (RERF-LC-KJ; first compound 0.000632 µM): 0.628 | relative viability (RERF-LC-KJ; first compound 0.002 µM): 0.368 | relative viability (RERF-LC-KJ; first compound 0.006325 µM): 0.189 | relative viability (RERF-LC-KJ; first compound 0.02 µM): 0.151
